# Assay results as given in PMC9952496, “A Novel Strategy for the Design of Aurein 1.2 Analogs with Enhanced Bioactivities by Conjunction of Cell-Penetrating Regions” (Antibiotics, 2023).
# Where two headings read alike, the source gives them in different places. Residues, ends and D or L forms follow the SMILES beside them.
# How the values were obtained:
# [1] = system: U251MG glioblastoma astrocytoma cell line; assay type: cell-based, human
# Procedure: (§1) The MTT test measures the anti-proliferation of the peptide by measuring MTT conversion by live cells into a formazan that cannot be dissolved in water. In this section, three cancer cell lines: human non-small-cell lung cancer cell line, NCI-H838 (ATCC-CRL-5844); human glioblastoma astrocytoma cell line, U251MG (ECACC-09063001) and human breast cancer cell line, MCF-7 (ATCC-HTB-22), were selected for the anti-proliferation study. H838 cells were cultured in Roswell Park Memorial Institute (RPMI)-1640 medium (Life Technologies, Paisley, UK) mixed with 10% (v/v) fetal bovine serum (FBS) and 1% penicillin-streptomycin (Gibco, 10,000 U/mL). U251MG and MCF-7 cells were cultured in Dulbecco’s Modified Eagle medium (DMEM) (Life Technologies, Carlsbad, CA) mixed with 10% (v/v) FBS and 1% penicillin–streptomycin (Gibco, 10,000 U/mL). The cancer cells were first seeded into the 96-well plates at a cell density of 8000 per well for 20–24 h at 37 °C. Then, the cells were starved by switching the FBS containing complete growth medium to FBS lacking serum-free medium for 4 h. Peptides were dissolved to a series of final concentrations from 10^−9 to 10^−4 M in ddH2O. After starvation, 1 μL of the peptide with 99 μL of the serum-free medium was added to the plate and then cultured for 20–24 h.; 10 µL of MTT (3-(4,5-dimethylthiazol-2-yl)-2,5-diphenyltetrazolium bromide, 5 mg/mL, Sigma, UK) were loaded into each well in the dark and incubated at 37 °C. Subsequently, the liquid in each well was removed completely before […] of DMSO was added to each well to dissolve the formazan. The plate was read at 570 nm using a Synergy HT plate reader.
# [2] = system: MCF-7 breast cancer cell line; assay type: cell-based, human
# Procedure: as §1
# [3] = system: NCI-H838 non-small-cell lung cancer cell line; assay type: cell-based, human
# Procedure: as §1
# E. coli (NCTC 8739) = assay type: cell-based; conditions: for MIC: NCTC 8739; for MBC: NCTC 8739, 20 h
# Procedure: (§2) The antimicrobial activity evaluation was conducted by use of MIC and MBC assays, using three Gram-positive bacteria and three Gram-negative bacteria. The peptides were dissolved in dimethyl sulfoxide (DMSO) for a final concentration series from 1 to 128 µM; 20 µmol of norfloxacin was applied as the positive control, and one µL of DMSO was used as the negative control. The bacteria were inoculated in the corresponding cultural media overnight and subcultured to the desired OD value (OD = 0.23 for Gram-positive bacteria, OD = 0.4 for Gram-negative bacteria corresponding to 5 × 10^5 CFU/mL); 20 mL of culture broth and 100 µL of subcultured bacteria were mixed before being loaded onto the plate, and 1 µL of the peptide cocktail was mixed with 99 µL of diluted bacteria in 96 wells plates and then was incubated for 20 to 24 h at 37 °C. Afterward, the OD value (λ = 550 nm) of each well was detected using a Synergy HT plate reader (Biotech, Minneapolis, MN, USA). The MIC value was the lowest concentration without bacterial growth visually. Subsequently, 10 µL of the solution in each clear well was loaded onto an agar plate and cultured for 20 h. The lowest concentration without colony growth was regarded as the MBC.
# MRSA (ATCC 12493) = assay type: cell-based; conditions: for MIC: ATCC 12493; for MBC: ATCC 12493, 20 h
# Procedure: as §2
# E. faecalis (NCTC 12697) = assay type: cell-based; conditions: for MIC: NCTC 12697; for MBC: NCTC 12697, 20 h
# Procedure: as §2
# [4] = system: K. pneumoniae (ATCC 43816); assay type: cell-based; conditions: for MIC: ATCC 43816; for MBC: ATCC 43816, 20 h
# Procedure: as §2
# [5] = system: S. aureus (ATCC CRM 6538); assay type: cell-based; conditions: for MIC: ATCC CRM 6538; for MBC: ATCC CRM 6538, 20 h
# Procedure: as §2
# [6] = system: P. aeruginosa (ATCC 9027); assay type: cell-based; conditions: for MIC: ATCC 9027; for MBC: ATCC 9027, 20 h
# Procedure: as §2
# horse erythrocytes [7] = assay: Haemolytic activity evaluation; conditions: at the peptide's MIC value for E. coli; horse erythrocytes in PBS, 2 h at 37 °C, absorbance 490 nm, Triton X-100 positive control, n = 9; listed as KIL-1
# Procedure: (§3) The hemolytic activity of the peptides on mammalian erythrocytes was examined using 2% defibrinated horse blood (TCS Biosciences Ltd., Buckinghamshire, UK). Firstly, the defibrinated horse blood was washed; 2 mL of horse blood was added into a 50 mL tube; then, 30 mL of sterilized PBS was added dropwise into the tube, and the tube was mixed in a shaking bed and then centrifuged at 930× g for 10 min. The procedure was repeated until the supernatant of the centrifuge tube was clear. Afterward, the blood cell pellet was dispersed to make a 4% suspension (v/v) by adding 50 mL of sterilized PBS. Peptides were dissolved using PBS to achieve final concentrations of 1–128 μM and then mixed with the blood cell suspensions in 1.5-mL tubes. The blood cell suspensions treated with 0.1% Triton X-100 and PBS were used as positive controls and negative controls, respectively. Then the peptide-blood mixture was incubated at 37 °C degrees for 2 h in an incubator. After incubation, the tubes were centrifuged at 930× g for 10 min, and 100 µL of the supernatants were loaded into wells of the 96-well plates. The absorbance was obtained by Synergy HT plate reader at 490 nm. The hemolytic activity was calculated using the formula, hemolysis = (absorbance of experimental groups − absorbance of negative control))/(absorbance of positive control − absorbance of negative control) × 100%.
# [8] = system: Gram-positive bacteria biofilm; assay type: cell-based; conditions: range over Gram-positive bacteria
# Procedure: (§4) The minimum biofilm inhibition and minimum biofilm eradication concentrations were obtained by use of the MBIC and MBEC assays. The anti-biofilm activity of the peptides was evaluated by use of S. aureus (ATCC 6538), MRSA (NCTC 12493), E. faecalis (NCTC 12493), E. coli (ATCC CRM 8739), K. pneumoniae (ATCC43816), and P. aeruginosa (ATCC CRM 9027).
# (§5) For the MBIC assay, the bacteria were cultured in tryptic soy broth (TSB) broth with 1% glucose for Gram-positive bacteria biofilm and Luria Bertani (LB) broth with 1% glucose for Gram-negative bacteria biofilm. Bacteria were inoculated, subcultured, and diluted in the same method described before. The peptides were prepared in a concentration of 1–128 µM; 1 µL of peptide and 99 µL of subcultured bacteria were mixed in 96 well plates and cultured at 37 °C with a shear force of 200 rpm in a humid environment for 20–24 h. Then, the plate was washed with 130 µL of PBS twice, and 130 µL of methanol was added to stabilize the biofilm overnight; then, the plate was dyed with 100 mL of 0.5% crystal violet for 15 min. The stained biofilm was then washed once more and allowed to dry overnight. The stain was dissolved in acetic acid at a 30% concentration, and it was shaken for 15 min to ensure homogeneity. A Synergy HT plate reader was then used to read the plate at 595 nm. […]
# Gram-positive bacteria = assay: MIC assay, summary over Gram-positive bacteria; assay type: cell-based; conditions: range over three Gram-positive bacteria
# Procedure: as §2
# [9] = system: Gram-negative bacteria biofilm; conditions: range over Gram-negative bacteria
# Procedure: as §4, §5
# horse erythrocytes [10] = conditions: red cells of horse, 2 h
# Procedure: as §3
IC50 [1],IC50 [2],IC50 [3],MIC (E. coli (NCTC 8739)),MIC (MRSA (ATCC 12493)),MIC (E. faecalis (NCTC 12697)),MIC [4],MIC [5],MIC [6],SMILES,MBC (E. coli (NCTC 8739)),MBC (MRSA (ATCC 12493)),MBC (E. faecalis (NCTC 12697)),MBC [4],MBC [5],MBC [6],also measured
3.4 ± 0.71 µM,3 ± 0.76 µM,3.5 ± 0.74 µM,8 µM,16 µM,8 µM,>128 µM,8 µM,16 µM,CC[C@H](C)[C@H](NC(=O)[C@H](CCCCN)NC(=O)[C@H](CCCCN)NC(=O)[C@@H](NC(=O)[C@@H](NC(=O)[C@H](CCCCN)NC(=O)[C@H](CCCCN)NC(=O)[C@@H](NC(=O)[C@@H](NC(=O)[C@H](CC(=O)O)NC(=O)[C@H](Cc1ccccc1)NC(=O)[C@H](CC(C)C)NC(=O)CN)[C@@H](C)CC)[C@@H](C)CC)[C@@H](C)CC)[C@@H](C)CC)C(=O)N[C@@H](C)C(=O)N[C@@H](CCC(=O)O)C(=O)N[C@@H](CO)C(=O)N[C@@H](Cc1ccccc1)C(N)=O [IK-1] (H-GLFDIIKKIIKKIAESF-NH2),8 µM,16 µM,16 µM,>128 µM,8 µM,32 µM,–
3.6 ± 0.18 µM,3.2 ± 0.87 µM,3.7 ± 0.77 µM,8 µM,>128 µM,>128 µM,16 µM,>128 µM,64 µM,CC[C@H](C)[C@H](NC(=O)[C@H](CCCCN)NC(=O)[C@H](CCCCN)NC(=O)[C@@H](NC(=O)[C@@H](NC(=O)[C@H](CCCCN)NC(=O)[C@H](CCCCN)NC(=O)[C@@H](NC(=O)[C@@H](NC(=O)[C@H](CCCCN)NC(=O)[C@H](CCCCN)NC(=O)[C@@H](NC(=O)[C@@H](NC(=O)[C@H](CC(=O)O)NC(=O)[C@H](Cc1ccccc1)NC(=O)[C@H](CC(C)C)NC(=O)CN)[C@@H](C)CC)[C@@H](C)CC)[C@@H](C)CC)[C@@H](C)CC)[C@@H](C)CC)[C@@H](C)CC)C(=O)N[C@@H](C)C(=O)N[C@@H](CCC(=O)O)C(=O)N[C@@H](CO)C(=O)N[C@@H](Cc1ccccc1)C(N)=O [IK-2] (H-GLFDIIKKIIKKIIKKIAESF-NH2),8 µM,>128 µM,>128 µM,16 µM,>128 µM,128 µM,–
3.3 ± 0.63 µM,3.4 ± 0.71 µM,2.99 µM,4 µM,16 µM,16 µM,8 µM,16 µM,16 µM,CC[C@H](C)[C@H](NC(=O)[C@H](CCCCN)NC(=O)[C@H](CCCCN)NC(=O)[C@@H](NC(=O)[C@@H](NC(=O)[C@H](CCCCN)NC(=O)[C@H](CCCCN)NC(=O)[C@@H](NC(=O)[C@@H](NC(=O)[C@H](CCCCN)NC(=O)[C@H](CCCCN)NC(=O)[C@@H](NC(=O)[C@@H](NC(=O)[C@H](CC(=O)O)NC(=O)[C@H](Cc1ccccc1)NC(=O)[C@H](CC(C)C)NC(=O)CN)[C@@H](C)CC)[C@@H](C)CC)[C@@H](C)CC)[C@@H](C)CC)[C@@H](C)CC)[C@@H](C)CC)C(N)=O [IK-3] (H-GLFDIIKKIIKKIIKKI-NH2),4 µM,32 µM,32 µM,8 µM,16 µM,16 µM,–
34.1 ± 0.21 µM,17.6 ± 0.79 µM,29.4 ± 0.22 µM,8 µM,16 µM,32 µM,32 µM,16 µM,64 µM,CC[C@H](C)[C@H](NC(=O)[C@H](CC(=O)O)NC(=O)[C@H](Cc1ccccc1)NC(=O)[C@H](CC(C)C)NC(=O)CN)C(=O)N[C@H](C(=O)N[C@@H](CCCCN)C(=O)N[C@@H](CCCCN)C(=O)N[C@@H](CC(C)C)C(=O)N[C@@H](C)C(=O)N[C@@H](CCC(=O)O)C(=O)N[C@@H](CO)C(=O)N[C@@H](Cc1ccccc1)C(N)=O)[C@@H](C)CC [KLA-1] (H-GLFDIIKKLAESF-NH2),16 µM,32 µM,32 µM,32 µM,16 µM,128 µM,Hemolysis (horse erythrocytes [7]): almost no hemolysis was detected

SMILES,IC50 [1],IC50 [2],IC50 [3],MIC (E. coli (NCTC 8739)),MIC (MRSA (ATCC 12493)),MIC (E. faecalis (NCTC 12697)),MIC [4],MIC [5],MIC [6],MBC (E. coli (NCTC 8739)),MBC (MRSA (ATCC 12493)),MBC (E. faecalis (NCTC 12697)),MBC [4],MBC [5],MBC [6],also measured
CC[C@H](C)[C@H](NC(=O)[C@H](CC(=O)O)NC(=O)[C@H](Cc1ccccc1)NC(=O)[C@H](CC(C)C)NC(=O)CN)C(=O)N[C@H](C(=O)N[C@@H](CCCCN)C(=O)N[C@@H](CCCCN)C(=O)N[C@@H](CC(C)C)C(=O)N[C@@H](C)C(=O)N[C@@H](CCCCN)C(=O)N[C@@H](CC(C)C)C(=O)N[C@@H](C)C(=O)N[C@@H](CCC(=O)O)C(=O)N[C@@H](CO)C(=O)N[C@@H](Cc1ccccc1)C(N)=O)[C@@H](C)CC [KLA-2] (H-GLFDIIKKLAKLAESF-NH2),5 ± 0.12 µM,3.55 µM,4.6 ± 0.12 µM,2 µM,4 µM,16 µM,4 µM,–,16 µM,2 µM,4 µM,16 µM,4 µM,2/2 μM,16 µM,MBIC [8]: 2 to 16 µM
CC[C@H](C)[C@H](NC(=O)[C@H](CCCCN)NC(=O)[C@H](CCCCN)NC(=O)[C@@H](NC(=O)[C@@H](NC(=O)[C@H](CC(=O)O)NC(=O)[C@H](Cc1ccccc1)NC(=O)[C@H](CC(C)C)NC(=O)CN)[C@@H](C)CC)[C@@H](C)CC)C(=O)N[C@@H](C)C(=O)N[C@@H](CCC(=O)O)C(=O)N[C@@H](CO)C(=O)N[C@@H](Cc1ccccc1)C(N)=O [aurein 1.2] (H-GLFDIIKKIAESF-NH2),38.4 µM,25.9 ± 0.79 µM,26.9 µM,16 µM,16 µM,32 µM,64 µM,8 µM,64 µM,16 µM,16 µM,32 µM,64 µM,8 µM,128 µM,MICs against Gram-positive bacteria (Gram-positive bacteria): 8 to 32 µM; concentration effective in prevention of biofilm formation (MBIC) [9]: 64 to 128 µM; HC50 (horse erythrocytes [10]): around 30 μM; Hemolysis (horse erythrocytes [10]): 20.56%
